ChEMBL document CHEMBL3045722, “Synthesis, calcium-channel blocking activity, and conformational analysis of some novel 1,4-dihydropyridines: application of PM3 and DFT computational methods” (Med Chem Res, 2012)

target: Voltage-dependent L-type calcium channel subunit alpha-1C (Cavia porcellus, UniProt O35505); experiment: Antagonist activity at Cavia porcellus albino (guinea pig) calcium channel assessed as inhibition of KCl-induced ileal longitudinal smooth muscle contraction
Sequence (O35505 whole entry): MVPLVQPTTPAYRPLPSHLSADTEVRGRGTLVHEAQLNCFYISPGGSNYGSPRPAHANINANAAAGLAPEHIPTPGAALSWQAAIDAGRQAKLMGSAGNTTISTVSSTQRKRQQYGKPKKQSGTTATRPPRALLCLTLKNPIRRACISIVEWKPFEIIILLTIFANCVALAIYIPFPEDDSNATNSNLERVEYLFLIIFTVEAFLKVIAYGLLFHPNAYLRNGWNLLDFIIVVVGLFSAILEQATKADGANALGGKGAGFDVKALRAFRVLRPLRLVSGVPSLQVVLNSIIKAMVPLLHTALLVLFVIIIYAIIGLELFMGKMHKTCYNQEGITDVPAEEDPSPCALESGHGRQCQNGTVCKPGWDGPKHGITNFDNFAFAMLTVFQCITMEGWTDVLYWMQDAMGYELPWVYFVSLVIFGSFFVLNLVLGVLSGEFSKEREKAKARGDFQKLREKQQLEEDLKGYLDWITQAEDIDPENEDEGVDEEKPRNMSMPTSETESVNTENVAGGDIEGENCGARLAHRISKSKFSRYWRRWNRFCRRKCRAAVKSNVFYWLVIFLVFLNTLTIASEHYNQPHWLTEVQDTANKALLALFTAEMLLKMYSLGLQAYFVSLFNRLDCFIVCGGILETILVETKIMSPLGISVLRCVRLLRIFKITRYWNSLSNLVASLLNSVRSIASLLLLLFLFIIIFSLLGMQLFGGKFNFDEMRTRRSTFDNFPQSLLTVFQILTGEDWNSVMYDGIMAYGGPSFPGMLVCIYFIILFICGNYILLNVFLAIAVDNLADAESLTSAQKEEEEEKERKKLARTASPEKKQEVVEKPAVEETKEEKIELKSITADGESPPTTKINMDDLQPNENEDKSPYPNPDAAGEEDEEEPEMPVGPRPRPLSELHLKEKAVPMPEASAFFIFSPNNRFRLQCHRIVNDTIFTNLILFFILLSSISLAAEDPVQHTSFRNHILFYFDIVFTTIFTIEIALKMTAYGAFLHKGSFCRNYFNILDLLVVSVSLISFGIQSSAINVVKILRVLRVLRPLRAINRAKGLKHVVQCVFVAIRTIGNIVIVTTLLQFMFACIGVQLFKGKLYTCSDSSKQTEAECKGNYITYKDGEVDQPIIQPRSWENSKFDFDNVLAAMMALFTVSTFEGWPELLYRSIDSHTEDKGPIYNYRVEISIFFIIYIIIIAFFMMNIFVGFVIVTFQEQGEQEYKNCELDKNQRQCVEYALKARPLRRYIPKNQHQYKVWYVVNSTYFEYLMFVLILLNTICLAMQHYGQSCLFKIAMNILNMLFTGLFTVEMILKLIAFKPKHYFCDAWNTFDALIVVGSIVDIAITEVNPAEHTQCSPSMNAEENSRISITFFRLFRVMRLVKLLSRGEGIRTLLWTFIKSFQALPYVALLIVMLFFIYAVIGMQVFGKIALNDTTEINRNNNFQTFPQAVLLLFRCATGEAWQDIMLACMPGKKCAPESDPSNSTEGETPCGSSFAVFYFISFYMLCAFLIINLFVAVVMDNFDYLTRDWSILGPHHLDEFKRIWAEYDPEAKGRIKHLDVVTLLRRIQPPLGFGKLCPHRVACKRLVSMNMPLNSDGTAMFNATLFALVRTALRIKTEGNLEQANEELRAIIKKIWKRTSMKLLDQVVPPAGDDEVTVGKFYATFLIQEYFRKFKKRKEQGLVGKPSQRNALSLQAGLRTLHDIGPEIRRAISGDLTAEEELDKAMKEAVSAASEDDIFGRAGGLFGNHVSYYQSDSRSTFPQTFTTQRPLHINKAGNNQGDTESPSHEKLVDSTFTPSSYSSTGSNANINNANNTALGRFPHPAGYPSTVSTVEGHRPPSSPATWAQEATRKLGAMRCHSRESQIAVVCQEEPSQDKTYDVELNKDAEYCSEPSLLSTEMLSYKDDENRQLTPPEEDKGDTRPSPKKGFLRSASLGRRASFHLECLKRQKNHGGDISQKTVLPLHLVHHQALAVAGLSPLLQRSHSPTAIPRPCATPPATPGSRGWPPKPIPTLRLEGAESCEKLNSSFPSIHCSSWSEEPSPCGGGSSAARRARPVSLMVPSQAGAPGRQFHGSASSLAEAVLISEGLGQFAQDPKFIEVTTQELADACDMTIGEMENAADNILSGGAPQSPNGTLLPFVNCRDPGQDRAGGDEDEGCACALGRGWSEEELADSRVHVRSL

**Q.** How did the IC50 turn out when `COC(=O)C1=C(C)NC(C)=C(C(=O)OCCCc2ccccc2)C1c1cnc(SC)n1Nc1ccccc1` (stereo not drawn) was run?
**A.** 3.05 nM

**Q.** For `CCOC(=O)C1=C(C)NC(C)=C(C(=O)OC(C)C)C1c1cnc(SC)n1Nc1ccccc1` (stereo not drawn), which IC50 is on record?
**A.** 3.22 nM

**Q.** `CCOC(=O)C1=C(C)NC(C)=C(C(=O)OCCOC)C1c1cnc(SC)n1Nc1ccccc1` (stereo not drawn) was tested. Which IC50 did it give?
**A.** 2.91 nM

**Q.** How did the IC50 turn out when `CCOC(=O)C1=C(C)NC(C)=C(C(=O)OCc2ccccc2)C1c1cnc(SC)n1Nc1ccccc1` (stereo not drawn) was run?
**A.** 1.86 nM

**Q.** How did the IC50 turn out when `CCOC(=O)C1=C(C)NC(C)=C(C(=O)OCCCc2ccccc2)C1c1cnc(SC)n1Nc1ccccc1` (stereo not drawn) was run?
**A.** 2.54 nM

**Q.** With `CSc1ncc(C2C(C(=O)OC(C)C)=C(C)NC(C)=C2C(=O)OC(C)(C)C)n1Nc1ccccc1` (stereo not drawn) as the compound, how does the IC50 read?
**A.** 68.2 nM

**Q.** For `COCCOC(=O)C1=C(C)NC(C)=C(C(=O)OC(C)C)C1c1cnc(SC)n1Nc1ccccc1` (stereo not drawn), which IC50 is on record?
**A.** 53.4 nM

**Q.** With `CSc1ncc(C2C(C(=O)OCc3ccccc3)=C(C)NC(C)=C2C(=O)OC(C)C)n1Nc1ccccc1` (stereo not drawn) as the compound, how does the IC50 read?
**A.** 7.24 nM

**Q.** `CSc1ncc(C2C(C(=O)OCCCc3ccccc3)=C(C)NC(C)=C2C(=O)OC(C)C)n1Nc1ccccc1` (stereo not drawn) was tested. Which IC50 did it give?
**A.** 6.22 nM

**Q.** With `CSc1ncc(C2C(C(=O)OCC3CCCCC3)=C(C)NC(C)=C2C(=O)OC(C)C)n1Nc1ccccc1` (stereo not drawn) as the compound, how does the IC50 read?
**A.** 56 nM

**Q.** For `CSc1ncc(C2C(C(=O)OCC(C)C)=C(C)NC(C)=C2C(=O)OCC(C)C)n1Nc1ccccc1`, which IC50 is on record?
**A.** 6.71 nM

**Q.** How did the IC50 turn out when `COCCOC(=O)C1=C(C)NC(C)=C(C(=O)OCCOC)C1c1cnc(SC)n1Nc1ccccc1` was run?
**A.** 17.9 nM

**Q.** For `CSc1ncc(C2C(C(=O)OC3CCCC3)=C(C)NC(C)=C2C(=O)OC2CCCC2)n1Nc1ccccc1`, which IC50 is on record?
**A.** 425 nM

**Q.** `CSc1ncc(C2C(C(=O)OC3CCCCC3)=C(C)NC(C)=C2C(=O)OC2CCCCC2)n1Nc1ccccc1` was tested. Which IC50 did it give?
**A.** 465 nM

**Q.** With `CSc1ncc(C2C(C(=O)OCC3CCCCC3)=C(C)NC(C)=C2C(=O)OCC2CCCCC2)n1Nc1ccccc1` as the compound, how does the IC50 read?
**A.** 621 nM

**Q.** With `COC(=O)C1=C(C)NC(C)=C(C(=O)OC)C1c1cnc(SC)n1Nc1ccccc1` as the compound, how does the IC50 read?
**A.** 3.54 nM

**Q.** Which IC50 does the source give for `CCOC(=O)C1=C(C)NC(C)=C(C(=O)OCC)C1c1cnc(SC)n1Nc1ccccc1` here?
**A.** 1.69 nM

**Q.** Which IC50 does the source give for `CCCOC(=O)C1=C(C)NC(C)=C(C(=O)OCCC)C1c1cnc(SC)n1Nc1ccccc1` here?
**A.** 2.29 nM

**Q.** How did the IC50 turn out when `CSc1ncc(C2C(C(=O)OC(C)C)=C(C)NC(C)=C2C(=O)OC(C)C)n1Nc1ccccc1` was run?
**A.** 2.16 nM

**Q.** `CSc1ncc(C2C(C(=O)OC(C)(C)C)=C(C)NC(C)=C2C(=O)OC(C)(C)C)n1Nc1ccccc1` was tested. Which IC50 did it give?
**A.** 121 nM

**Q.** For `CSc1ncc(C2C(C(=O)OCc3ccccc3)=C(C)NC(C)=C2C(=O)OCc2ccccc2)n1Nc1ccccc1`, which IC50 is on record?
**A.** 1.49 nM

**Q.** `CSc1ncc(C2C(C(=O)OCCc3ccccc3)=C(C)NC(C)=C2C(=O)OCCc2ccccc2)n1Nc1ccccc1` was tested. Which IC50 did it give?
**A.** 2.79 nM

**Q.** Which IC50 does the source give for `CSc1ncc(C2C(C(=O)OCCCc3ccccc3)=C(C)NC(C)=C2C(=O)OCCCc2ccccc2)n1Nc1ccccc1` here?
**A.** 3.15 nM

**Q.** Which IC50 does the source give for `CCOC(=O)C1=C(C)NC(C)=C(C(=O)OC)C1c1cnc(SC)n1Nc1ccccc1` (stereo not drawn) here?
**A.** 1.66 nM

**Q.** How did the IC50 turn out when `CCCOC(=O)C1=C(C)NC(C)=C(C(=O)OC)C1c1cnc(SC)n1Nc1ccccc1` (stereo not drawn) was run?
**A.** 2.4 nM

**Q.** For `COC(=O)C1=C(C)NC(C)=C(C(=O)OC(C)C)C1c1cnc(SC)n1Nc1ccccc1` (stereo not drawn), which IC50 is on record?
**A.** 6.35 nM

**Q.** How did the IC50 turn out when `COCCOC(=O)C1=C(C)NC(C)=C(C(=O)OC)C1c1cnc(SC)n1Nc1ccccc1` (stereo not drawn) was run?
**A.** 9.65 nM

**Q.** With `COC(=O)C1=C(C)NC(C)=C(C(=O)OCc2ccccc2)C1c1cnc(SC)n1Nc1ccccc1` (stereo not drawn) as the compound, how does the IC50 read?
**A.** 2.21 nM
